From the NIST ThermoML archive (doi:10.1016/j.fluid.2014.11.020)
Numbers after ± are expanded uncertainties.

Test: activity coefficient (dimensionless); of the first substance listed, at infinite dilution; xn = mol fraction of the nth substance listed
Conditions: Liquid, Chromatography, x1 = 0

Row | Structure (SMILES) | activity coefficient (323.15 K) | activity coefficient (333.15 K) | activity coefficient (343.15 K)
1 | C1CCCCCC1 [cycloheptane] + CCCOC[n+]1ccn(C)c1.N#C[N-]C#N | 79.2 ± 5.4 | 105 ± 7.2 | 133 ± 9.1
2 | C1CCCCCC1 [cycloheptane] + CCCOC[n+]1ccn(C)c1.O=S(=O)([N-]S(=O)(=O)C(F)(F)F)C(F)(F)F | 27.2 ± 1.9 | 35.8 ± 2.5 | 46.1 ± 3.2
3 | C1CCCCCC1 [cycloheptane] + CCCOC[n+]1ccn(Cc2ccccc2)c1.N#C[N-]C#N | 35.8 ± 2.5 | 47.2 ± 3.2 | 56.3 ± 3.9
4 | C1CCCCCC1 [cycloheptane] + CCCOC[n+]1ccn(Cc2ccccc2)c1.O=S(=O)([N-]S(=O)(=O)C(F)(F)F)C(F)(F)F | 13.4 ± 0.91 | 15.8 ± 1.1 | 20.5 ± 1.4
5 | C1CCCCCC1 [cycloheptane] + CN(C)c1cc[n+](COCCCOC[n+]2ccc(N(C)C)cc2)cc1.O=S(=O)([N-]S(=O)(=O)C(F)(F)F)C(F)(F)F.O=S(=O)([N-]S(=O)(=O)C(F)(F)F)C(F)(F)F | 27 ± 1.9 | 34.9 ± 2.4 | 42.8 ± 2.9
6 | C1CCCCCC1 [cycloheptane] + Cn1cc[n+](COCCCOC[n+]2ccn(C)c2)c1.O=S(=O)([N-]S(=O)(=O)C(F)(F)F)C(F)(F)F.O=S(=O)([N-]S(=O)(=O)C(F)(F)F)C(F)(F)F | 41.5 ± 2.8 | 51.9 ± 3.5 | 63.5 ± 4.3
7 | C1CCCCCC1 [cycloheptane] + N#C[N-]C#N.N#C[N-]C#N.c1ccc(Cn2cc[n+](COCCCOC[n+]3ccn(Cc4ccccc4)c3)c2)cc1 | 117 ± 8 | 139 ± 9.6 | 171 ± 12
8 | C1CCCCC1 [cyclohexane] + CCCCCCCCn1cc[n+](COCCC)c1C.N#C[N-]C#N | 4.06 ± 0.28 | 3.85 ± 0.26 | 3.82 ± 0.26
9 | C1CCCCC1 [cyclohexane] + CCCCCCCCn1cc[n+](COCCCOC[n+]2ccn(CCCCCCCC)c2C)c1C.N#C[N-]C#N.N#C[N-]C#N | 4.29 ± 0.29 | 3.86 ± 0.26 | 3.71 ± 0.25
10 | C1CCCCC1 [cyclohexane] + CCCCCCCCn1cc[n+](COCCCOC[n+]2ccn(CCCCCCCC)c2C)c1C.O=S(=O)([N-]S(=O)(=O)C(F)(F)F)C(F)(F)F.O=S(=O)([N-]S(=O)(=O)C(F)(F)F)C(F)(F)F | 2.41 ± 0.16 | 2.22 ± 0.15 | 2.11 ± 0.14
11 | C1CCCCC1 [cyclohexane] + CCCOC[n+]1ccc(N(C)C)cc1.O=S(=O)([N-]S(=O)(=O)C(F)(F)F)C(F)(F)F | 7.06 ± 0.48 | 6.83 ± 0.47 | 6.37 ± 0.43
12 | C1CCCCC1 [cyclohexane] + CCCOC[n+]1ccn(C)c1.F[B-](F)(F)F | 46.7 ± 3.2 | 40.6 ± 2.8 | 36.4 ± 2.5
13 | C1CCCCC1 [cyclohexane] + CCCOC[n+]1ccn(C)c1.N#C[N-]C#N | 26.6 ± 1.8 | 24.3 ± 1.7 | 22.7 ± 1.6
14 | C1CCCCC1 [cyclohexane] + CCCOC[n+]1ccn(C)c1.O=S(=O)([N-]S(=O)(=O)C(F)(F)F)C(F)(F)F | 9.55 ± 0.65 | 9.25 ± 0.63 | 9.07 ± 0.62
15 | C1CCCCC1 [cyclohexane] + CCCOC[n+]1ccn(Cc2ccccc2)c1.N#C[N-]C#N | 13.1 ± 0.9 | 12.3 ± 0.84 | 11.5 ± 0.79
16 | C1CCCCC1 [cyclohexane] + CCCOC[n+]1ccn(Cc2ccccc2)c1.O=S(=O)([N-]S(=O)(=O)C(F)(F)F)C(F)(F)F | 4.98 ± 0.34 | 4.29 ± 0.29 | 3.99 ± 0.27
17 | C1CCCCC1 [cyclohexane] + CN(C)c1cc[n+](COCCCOC[n+]2ccc(N(C)C)cc2)cc1.O=S(=O)([N-]S(=O)(=O)C(F)(F)F)C(F)(F)F.O=S(=O)([N-]S(=O)(=O)C(F)(F)F)C(F)(F)F | 10.7 ± 0.73 | 9.32 ± 0.64 | 8.67 ± 0.59
18 | C1CCCCC1 [cyclohexane] + Cn1cc[n+](COCCCOC[n+]2ccn(C)c2)c1.O=S(=O)([N-]S(=O)(=O)C(F)(F)F)C(F)(F)F.O=S(=O)([N-]S(=O)(=O)C(F)(F)F)C(F)(F)F | 17.6 ± 1.2 | 12.4 ± 0.85 | 
19 | CCCCCCCCCC [decane] + CCCCCCCCn1cc[n+](COCCC)c1C.N#C[N-]C#N | 17 ± 1.2 | 15.5 ± 1.1 | 14.9 ± 1
20 | CCCCCCCCCC [decane] + CCCCCCCCn1cc[n+](COCCC)c1C.O=S(=O)([N-]S(=O)(=O)C(F)(F)F)C(F)(F)F | 8.9 ± 0.61 | 8.47 ± 0.58 | 7.92 ± 0.54
21 | CCCCCCCCCC [decane] + CCCCCCCCn1cc[n+](COCCCOC[n+]2ccn(CCCCCCCC)c2C)c1C.N#C[N-]C#N.N#C[N-]C#N | 19.5 ± 1.3 | 19.5 ± 1.3 | 17.8 ± 1.2
22 | CCCCCCCCCC [decane] + CCCCCCCCn1cc[n+](COCCCOC[n+]2ccn(CCCCCCCC)c2C)c1C.O=S(=O)([N-]S(=O)(=O)C(F)(F)F)C(F)(F)F.O=S(=O)([N-]S(=O)(=O)C(F)(F)F)C(F)(F)F | 9.63 ± 0.66 | 8.73 ± 0.6 | 8.35 ± 0.57
